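Five concentrations, 48 hours, 96-well plates. TGI denotes the concentration required for complete inhibition of growth.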 Some results are limits rather than exact numbers.

Some test systems named below: CAKI-1 renal; M14 melanoma; UO-31 renal; UACC-62 melanoma; IGROV1 ovarian; SF-539 CNS; KM12 colon; A549 NSCLC; OVCAR-3 ovarian; OVCAR-5 ovarian.
Common to all, as to assay: NCI-60 cell line screen, 48 h

Regarding `CC(C)(C)C(O)CC(O)(C(F)(F)F)C(F)(F)F` (stereo not given), the TGI with CAKI-1 renal, with M14 melanoma, with UO-31 renal, in the experiment on UACC-62 melanoma, in the experiment with IGROV1 ovarian and with SF-539 CNS was greater than 100 µM each time. In addition, the TGI with KM12 colon, in the experiment with A549 NSCLC, with OVCAR-3 ovarian and in the experiment on OVCAR-5 ovarian was greater than 100 µM in each case.
Regarding `O=C(O)CCNc1ncc2c(n1)-c1ccccc1OC2`, the TGI with CAKI-1 renal, with M14 melanoma, in the experiment with UO-31 renal, with UACC-62 melanoma, in the experiment with IGROV1 ovarian and in the experiment on SF-539 CNS was greater than 100 µM in each case. For the same compound, the TGI in the experiment on KM12 colon, in the experiment with A549 NSCLC, in the experiment on OVCAR-3 ovarian and with OVCAR-5 ovarian was greater than 100 µM throughout.
Turning to `O=C1C(Cl)=C(N2CCN(CCOCCO)CC2)C(=O)c2ccccc21`, the TGI was determined as 29.5 µM in the experiment on CAKI-1 renal; 22.6 µM in the experiment with M14 melanoma; 21.2 µM with UO-31 renal; 13.7 µM in the experiment with UACC-62 melanoma; 28.6 µM in the experiment on IGROV1 ovarian; 33.1 µM with SF-539 CNS. The TGI with KM12 colon came to 31.6 µM; in the experiment on A549 NSCLC, 34.2 µM; with OVCAR-3 ovarian, 9.44 µM; in the experiment on OVCAR-5 ovarian, 37.4 µM.
For the compound `CCCCCCCCCC(=O)NCCc1c[nH]c2ccc(OC)cc12`, the TGI came to 65.6 µM with CAKI-1 renal; 34 µM in the experiment on M14 melanoma; 26.1 µM in the experiment on UO-31 renal; 30.4 µM with UACC-62 melanoma; 30 µM with IGROV1 ovarian; 46 µM in the experiment on SF-539 CNS. The TGI in the experiment with KM12 colon is greater than 100 µM; with A549 NSCLC, 40.1 µM; with OVCAR-3 ovarian, 30.3 µM; in the experiment with OVCAR-5 ovarian, 61.2 µM.
As to `OCC(O)C(O)C(O)C(O)CNCCO/N=C1/C(c2c(O)[nH]c3ccccc23)=Nc2ccccc21` (stereo not given), the TGI in the experiment on CAKI-1 renal is greater than 50 µM; with M14 melanoma, greater than 50 µM; in the experiment on UO-31 renal, greater than 50 µM; with UACC-62 melanoma, 17.5 µM; in the experiment with IGROV1 ovarian, greater than 50 µM; in the experiment on SF-539 CNS, 41.6 µM. Besides, the TGI in the experiment with KM12 colon was greater than 50 µM; in the experiment on A549 NSCLC it was greater than 50 µM; with OVCAR-3 ovarian it was 26.3 µM; in the experiment with OVCAR-5 ovarian it was greater than 50 µM.
Consider `COc1ccc(N=C(CS(=O)c2ccc(C)cc2)C(F)(F)F)cc1` (stereo not given), for which the TGI in the experiment with CAKI-1 renal, in the experiment with M14 melanoma, in the experiment on UO-31 renal, in the experiment on UACC-62 melanoma, in the experiment on IGROV1 ovarian and with SF-539 CNS was greater than 100 µM throughout. The TGI with KM12 colon, in the experiment on A549 NSCLC, with OVCAR-3 ovarian and with OVCAR-5 ovarian was greater than 100 µM throughout.
Take `CC(C)C1CC(CO)(CNc2nc(N)nc(Cl)c2/C=N\O)C1` (stereo not given): the TGI in the experiment with CAKI-1 renal was found to be 33.7 µM; with M14 melanoma, 26.1 µM; in the experiment with UO-31 renal, 36.3 µM; in the experiment with UACC-62 melanoma, 25.4 µM; in the experiment on IGROV1 ovarian it was 50.1 µM; in the experiment with SF-539 CNS it was 49.3 µM. Besides, the TGI in the experiment with KM12 colon is 18.3 µM; with A549 NSCLC, 18.8 µM; with OVCAR-3 ovarian it was 36.9 µM; in the experiment with OVCAR-5 ovarian it was 85.2 µM.
Take `CC1(c2nc3ccccc3[nH]2)CCC(C#N)C(C)(C)O1` (stereo not given): the TGI in the experiment with CAKI-1 renal, in the experiment with M14 melanoma, with UO-31 renal, in the experiment with UACC-62 melanoma, in the experiment on IGROV1 ovarian and with SF-539 CNS was greater than 100 µM throughout. The TGI in the experiment on KM12 colon, with A549 NSCLC, with OVCAR-3 ovarian and with OVCAR-5 ovarian was greater than 100 µM each time.
As to `CC(=O)Nc1ncc2c(n1)-c1ccccc1OC2c1ccccc1` (stereo not given), the TGI with CAKI-1 renal is 68.3 µM; with M14 melanoma, greater than 100 µM; with UO-31 renal it was greater than 100 µM; with UACC-62 melanoma it was 36.4 µM; in the experiment on IGROV1 ovarian, greater than 100 µM; with SF-539 CNS, 35.1 µM. Also, the TGI with KM12 colon, with A549 NSCLC, in the experiment on OVCAR-3 ovarian and in the experiment on OVCAR-5 ovarian was greater than 100 µM in each case.
Turning to `O=c1ccn(Cc2ccccc2CCl)c(=O)[nH]1`, the TGI in the experiment on CAKI-1 renal came to 64 µM; in the experiment on M14 melanoma, 73.9 µM; in the experiment with UO-31 renal, 77.3 µM; with UACC-62 melanoma it was 63.4 µM; in the experiment with IGROV1 ovarian it was 55.3 µM; in the experiment with SF-539 CNS, 52.7 µM. The TGI with KM12 colon is 83.3 µM; in the experiment with A549 NSCLC, greater than 100 µM; in the experiment on OVCAR-3 ovarian it was 42 µM; with OVCAR-5 ovarian, 37.4 µM.
For the compound `O=c1oc2ccc3ccccc3c2cc1-c1nc(-c2ccc([N+](=O)[O-])cc2)n[nH]1`, the TGI with CAKI-1 renal was greater than 100 µM; with M14 melanoma, greater than 100 µM; in the experiment with UO-31 renal, greater than 100 µM; with UACC-62 melanoma, greater than 100 µM; in the experiment with IGROV1 ovarian, 51.8 µM; in the experiment with SF-539 CNS it was 39.4 µM. The TGI with KM12 colon, with A549 NSCLC, with OVCAR-3 ovarian and with OVCAR-5 ovarian was greater than 100 µM throughout.
For `COc1ccc(Cc2cc(OC)c(OC)c(OC)c2)cc1`, the TGI is greater than 51.7 µM in the experiment on CAKI-1 renal; greater than 100 µM with M14 melanoma; 90.5 µM in the experiment with UO-31 renal; greater than 100 µM with UACC-62 melanoma; greater than 100 µM in the experiment with IGROV1 ovarian; 1.76 µM in the experiment on SF-539 CNS. Besides, the TGI in the experiment on KM12 colon was greater than 100 µM; in the experiment on A549 NSCLC, greater than 100 µM; in the experiment on OVCAR-3 ovarian, 0.424 µM; with OVCAR-5 ovarian it was greater than 100 µM.
Regarding `O=C1NC(=S)N/C1=C\c1ccc(Cl)cc1`, the TGI in the experiment with CAKI-1 renal, with M14 melanoma, in the experiment with UO-31 renal, in the experiment on UACC-62 melanoma, in the experiment on IGROV1 ovarian and with SF-539 CNS was greater than 100 µM throughout. Further, the TGI in the experiment on KM12 colon, with A549 NSCLC, in the experiment with OVCAR-3 ovarian and with OVCAR-5 ovarian was greater than 100 µM in each case.
On to `Cc1ccc(S(=O)(=O)NN=C2C(C)(C)CC2(C)C)cc1`, for which the TGI with CAKI-1 renal, in the experiment with M14 melanoma, in the experiment on UO-31 renal, in the experiment with UACC-62 melanoma, in the experiment on IGROV1 ovarian and in the experiment on SF-539 CNS was greater than 100 µM each time. Besides, the TGI in the experiment with KM12 colon, in the experiment with A549 NSCLC, in the experiment on OVCAR-3 ovarian and with OVCAR-5 ovarian was greater than 100 µM each time.

These data come from PubChem BioAssay (NCI).
